# Results: publication PMC4819188, “BitterX: a tool for understanding bitter taste in humans” (Scientific Reports, 2016)
# Where two headings read alike, the source gives them in different places.
# Legend:
# Experiment in all cases: calcium imaging (Fluo-4) dose-response, HEK293T
# Assay type in all cases: cell-based
# TAS2R14 = molecular target: T1, TAS2R14 (Homo sapiens, UniProt Q9NYV8)
# T1 construct: full ORF from human genomic DNA with N-terminal rhodopsin tag (first 20 residues), pCI; HEK293T with Galpha16/gust44
# T1 sequence (Q9NYV8 1-317): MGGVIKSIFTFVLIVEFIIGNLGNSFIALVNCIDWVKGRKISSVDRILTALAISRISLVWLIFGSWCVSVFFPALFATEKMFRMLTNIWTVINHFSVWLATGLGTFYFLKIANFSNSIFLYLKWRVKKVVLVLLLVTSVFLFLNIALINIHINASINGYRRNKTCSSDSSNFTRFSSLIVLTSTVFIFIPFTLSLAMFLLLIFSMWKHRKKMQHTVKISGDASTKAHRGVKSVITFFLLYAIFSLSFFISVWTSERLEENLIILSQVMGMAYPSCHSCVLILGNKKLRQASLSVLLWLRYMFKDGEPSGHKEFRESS
# Text: calcium imaging (Fluo-4) dose-response, HEK293T on TAS2R14
# TAS2R41 = molecular target: T2, TAS2R41 (Homo sapiens, UniProt P59536)
# T2 construct: full ORF from human genomic DNA with N-terminal rhodopsin tag (first 20 residues), pCI; HEK293T with Galpha16/gust44
# T2 sequence (P59536 1-307): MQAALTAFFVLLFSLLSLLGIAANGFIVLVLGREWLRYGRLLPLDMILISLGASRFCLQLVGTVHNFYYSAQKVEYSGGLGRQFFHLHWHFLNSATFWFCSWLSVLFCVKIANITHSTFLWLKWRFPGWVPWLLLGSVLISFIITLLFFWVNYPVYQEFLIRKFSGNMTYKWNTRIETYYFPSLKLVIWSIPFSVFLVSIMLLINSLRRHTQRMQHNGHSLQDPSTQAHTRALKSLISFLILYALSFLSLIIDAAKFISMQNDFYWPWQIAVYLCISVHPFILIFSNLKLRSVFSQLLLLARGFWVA
# Text: calcium imaging (Fluo-4) dose-response, HEK293T on TAS2R41
# TAS2R10 = molecular target: T3, TAS2R10 (Homo sapiens, UniProt Q9NYW0)
# T3 construct: full ORF from human genomic DNA with N-terminal rhodopsin tag (first 20 residues), pCI; HEK293T with Galpha16/gust44
# T3 sequence (Q9NYW0 1-307): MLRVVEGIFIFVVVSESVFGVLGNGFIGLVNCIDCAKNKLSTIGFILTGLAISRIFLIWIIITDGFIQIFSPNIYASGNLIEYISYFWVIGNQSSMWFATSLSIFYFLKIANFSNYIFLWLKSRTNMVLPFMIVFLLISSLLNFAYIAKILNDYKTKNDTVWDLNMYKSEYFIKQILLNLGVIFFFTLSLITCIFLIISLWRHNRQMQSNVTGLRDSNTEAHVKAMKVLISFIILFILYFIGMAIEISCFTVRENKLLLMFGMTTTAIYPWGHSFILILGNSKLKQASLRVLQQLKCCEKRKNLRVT
# Text: calcium imaging (Fluo-4) dose-response, HEK293T on TAS2R10
# TAS2R4 = molecular target: T4, TAS2R4 (Homo sapiens, UniProt Q9NYW5)
# T4 construct: full ORF from human genomic DNA with N-terminal rhodopsin tag (first 20 residues), pCI; HEK293T with Galpha16/gust44
# T4 sequence (Q9NYW5 1-299): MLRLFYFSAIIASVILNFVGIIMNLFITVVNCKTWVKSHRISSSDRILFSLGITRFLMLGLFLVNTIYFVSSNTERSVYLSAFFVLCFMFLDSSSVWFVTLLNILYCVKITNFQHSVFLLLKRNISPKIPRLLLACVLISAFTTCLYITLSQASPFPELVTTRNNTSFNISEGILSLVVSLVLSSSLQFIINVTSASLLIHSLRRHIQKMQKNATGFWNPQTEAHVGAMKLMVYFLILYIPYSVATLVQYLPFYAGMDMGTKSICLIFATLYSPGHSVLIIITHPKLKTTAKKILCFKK
# Text: calcium imaging (Fluo-4) dose-response, HEK293T on TAS2R4
# TAS2R39 = molecular target: T5, TAS2R39 (Homo sapiens, UniProt P59534)
# T5 construct: full ORF from human genomic DNA with N-terminal rhodopsin tag (first 20 residues), pCI; HEK293T with Galpha16/gust44
# T5 sequence (P59534 1-338): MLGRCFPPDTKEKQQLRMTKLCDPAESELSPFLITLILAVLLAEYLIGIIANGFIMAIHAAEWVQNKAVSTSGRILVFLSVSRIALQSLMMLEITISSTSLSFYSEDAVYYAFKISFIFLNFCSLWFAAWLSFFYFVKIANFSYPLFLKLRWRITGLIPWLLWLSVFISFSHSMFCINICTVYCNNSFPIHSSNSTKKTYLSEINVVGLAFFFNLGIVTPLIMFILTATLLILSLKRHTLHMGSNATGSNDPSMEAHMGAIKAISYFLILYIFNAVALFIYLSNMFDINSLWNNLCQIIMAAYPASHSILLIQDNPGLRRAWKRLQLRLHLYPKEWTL
# Text: calcium imaging (Fluo-4) dose-response, HEK293T on TAS2R39
# TAS2R46 = molecular target: T6, TAS2R46 (Homo sapiens, UniProt P59540)
# T6 construct: full ORF from human genomic DNA with N-terminal rhodopsin tag (first 20 residues), pCI; HEK293T with Galpha16/gust44
# T6 sequence (P59540 1-309): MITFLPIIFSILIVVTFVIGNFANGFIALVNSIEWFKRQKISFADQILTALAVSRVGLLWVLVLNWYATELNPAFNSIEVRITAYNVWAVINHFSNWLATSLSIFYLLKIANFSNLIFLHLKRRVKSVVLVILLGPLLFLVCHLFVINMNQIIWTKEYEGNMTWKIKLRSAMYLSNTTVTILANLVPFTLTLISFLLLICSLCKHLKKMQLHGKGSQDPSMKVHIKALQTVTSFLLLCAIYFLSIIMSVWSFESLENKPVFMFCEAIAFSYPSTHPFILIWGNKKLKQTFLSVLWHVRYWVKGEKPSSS
# Text: calcium imaging (Fluo-4) dose-response, HEK293T on TAS2R46
# TAS2R16 = molecular target: T7, TAS2R16 (Homo sapiens, UniProt Q9NYV7)
# T7 construct: full ORF from human genomic DNA with N-terminal rhodopsin tag (first 20 residues), pCI; HEK293T with Galpha16/gust44
# T7 sequence (Q9NYV7 1-291): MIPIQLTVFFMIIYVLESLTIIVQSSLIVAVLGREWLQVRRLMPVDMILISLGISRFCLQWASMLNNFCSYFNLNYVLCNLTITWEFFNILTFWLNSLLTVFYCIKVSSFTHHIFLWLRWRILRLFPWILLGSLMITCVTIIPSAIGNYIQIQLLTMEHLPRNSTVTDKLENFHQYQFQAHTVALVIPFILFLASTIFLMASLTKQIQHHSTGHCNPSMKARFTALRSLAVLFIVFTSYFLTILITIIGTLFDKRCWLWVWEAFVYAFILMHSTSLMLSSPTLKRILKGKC
# Text: calcium imaging (Fluo-4) dose-response, HEK293T on TAS2R16
compound,measurement,setting,value
c1ccc(CC2=NCCN2)cc1 [ww3],EC50,TAS2R14,1280 µM
"N=C(N)NC(=N)Nc1ccccc1 [compound 1, 1]",EC50,TAS2R41,3320 µM
same,EC50,TAS2R10,1540 µM
same,EC50,TAS2R4,3710 µM
same,EC50,TAS2R14,760 µM
"COc1cc(/C=C\C(=O)O)cc(S(=O)(=O)Nc2ccc(C(=O)O)cc2)c1OC [compound 5, 5]",EC50,TAS2R39,84.1 µM
same,EC50,TAS2R10,4000 µM
same,EC50,TAS2R14,232 µM
same,EC50,TAS2R46,138 µM
"NC(=O)c1ccccc1O [compound 2, 2]",EC50,TAS2R10; read-out: Log EC50 (converted),9750 µM
same,EC50,TAS2R14; read-out: Log EC50 (converted),356 µM
same,EC50,TAS2R16,489 µM
"COc1ccccc1C=O [compound 4, 4]",EC50,TAS2R10; read-out: Log EC50 (converted),4000 µM
same,EC50,TAS2R14; read-out: Log EC50 (converted),1230 µM
